Measured values reported in patent US12077503B2, “Substituted cyclic amides and their use as herbicides” (FMC CORPORATION, priority 2015, dated 2024).

Experiments:
Format in all cases: in vivo
Kochia (Kochia scoparia) [1] = assay: Test A preemergence
Method in brief: (§1)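 Each rating is a visual injury score from 0 to 100 given about 10 d after treatment, judged against untreated controls kept alongside in the greenhouse. In loam soil–sand blend, seeds got a preemergence directed soil spray, while postemergence plants were 2 to 10 cm tall at spraying.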

[2] = test system: barnyardgrass (Echinochloa crus-galli); assay: Test A preemergence
Method in brief: as §1

[3] = test system: giant foxtail (Setaria faberii); assay: Test A preemergence
Method in brief: as §1

[4] = test system: pigweed (Amaranthus retroflexus); assay: Test A preemergence
[5] = test system: ragweed (common ragweed, Ambrosia elatior); assay: Test A preemergence
Method in brief: as §1

[6] = test system: ryegrass, Italian (Italian ryegrass, Lolium multiflorum); assay: Test A preemergence
Method in brief: as §1

[7] = test system: Galium (catchweed bedstraw, Galium aparine); assay: Test A postemergence
Method in brief: as §1

Kochia (Kochia scoparia) [8] = assay: Test A postemergence
Method in brief: as §1

[9] = test system: barnyardgrass (Echinochloa crus-galli); assay: Test A postemergence
Method in brief: as §1

[10] = test system: blackgrass (Alopecurus myosuroides); assay: Test A postemergence
Method in brief: as §1

corn (Zea mays) = assay: Test A postemergence
Method in brief: as §1

[11] = test system: giant foxtail (Setaria faberii); assay: Test A postemergence
Method in brief: as §1

[12] = test system: pigweed (Amaranthus retroflexus); assay: Test A postemergence
Method in brief: as §1

[13] = test system: ragweed (common ragweed, Ambrosia elatior); assay: Test A postemergence
Method in brief: as §1

[14] = test system: ryegrass, Italian (Italian ryegrass, Lolium multiflorum); assay: Test A postemergence
Method in brief: as §1

[15] = test system: wheat (Triticum aestivum); assay: Test A postemergence
Method in brief: as §1

[16] = test system: barnyardgrass (Echinochloa crus-galli); assay: Test B flooded paddy test; settings: Flood, 0 to 100 scale where 0 is no effect and 100 is complete control, 13 to 15 d
Method in brief: (§2)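 Response scored visually against untreated controls, 0 = no effect and 100 = complete control, 13–15 d after treatment in the greenhouse. Compounds added to paddy water held 3 cm above soil surface. Treatment given at 2-leaf stage.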

[17] = test system: ducksalad (Heteranthera limosa); assay: Test B flooded paddy test; settings: Flood, 0 to 100 scale where 0 is no effect and 100 is complete control, 13 to 15 d
Method in brief: as §2

rice (Oryra sativa) = assay: Test B flooded paddy test; settings: Flood, 0 to 100 scale where 0 is no effect and 100 is complete control, 13 to 15 d
Method in brief: as §2

[18] = test system: sedge, umbrella (small-flower umbrella sedge, Cyperus difformis); assay: Test B flooded paddy test; settings: Flood, 0 to 100 scale where 0 is no effect and 100 is complete control, 13 to 15 d
Method in brief: as §2

[19] = 125 g ai/ha, preemergence, visual rating after approx. 10 d, 0 to 100 scale where 0 is no effect and 100 is complete control
[20] = 500 g ai/ha, preemergence, 0 to 100 scale, 0 = no effect, 100 = complete control
[21] = 125 g ai/ha, postemergence, visual injury after approximately 10 d, 0 to 100 scale (0 no effect, 100 complete control)
[22] = 500 g ai/ha, postemergence, visual injury, 0 to 100 scale (0 no effect, 100 complete control), approx. 10 d
[23] = 125 g ai/ha, Preemergence, visual injury after approximately 10 d, 0 to 100 scale where 0 is no effect and 100 is complete control
[24] = Preemergence, 500 g ai/ha, visual injury approx. 10 d
[25] = 125 g ai/ha, postemergence, visual injury rating on 0 to 100 scale (0 no effect, 100 complete control), approx. 10 d
[26] = Postemergence, 500 g ai/ha, 0 to 100 scale where 0 is no effect and 100 is complete control
[27] = 125 g ai/ha, postemergence, visual rating after approx. 10 d, 0 to 100 scale (0 no effect, 100 complete control)

O=C1NCC(c2cccc(OC(F)(F)C(F)F)c2)C1C(=O)Nc1ccc(F)cc1F (racemic) [Compound 696]
Plant response rating, Kochia (Kochia (Kochia scoparia) [1]; [19]): 40 | Plant response rating, Kochia (Kochia (Kochia scoparia) [1]; [20]): 60 | Plant response rating, Barnyardgrass [2, 19]: 80 | Plant response rating, Barnyardgrass [2, 20]: 90 | Plant response rating, Foxtail, Giant [3, 19]: 90 | Plant response rating, Foxtail, Giant [3, 20]: 90 | Plant response rating, Pigweed [4, 19]: 20 | Plant response rating, Pigweed [4, 20]: 30 | Plant response rating, Ragweed [5, 19]: 0 | Plant response rating, Ragweed [5, 20]: 40 | Plant response rating, Ryegrass, Italian [6, 19]: 30 | Plant response rating, Ryegrass, Italian [6, 20]: 60 | Plant response rating, Galium [7, 21]: 50 | Plant response rating, Galium [7, 22]: 70 | Plant response rating, Kochia (Kochia (Kochia scoparia) [8]; [21]): 30 | Plant response rating, Kochia (Kochia (Kochia scoparia) [8]; [22]): 40 | Plant response rating, Barnyardgrass [9, 21]: 80 | Plant response rating, Barnyardgrass [9, 22]: 80 | Plant response rating, Blackgrass [10, 21]: 30 | Plant response rating, Blackgrass [10, 22]: 40 | Plant response rating, Corn (corn (Zea mays); [21]): 40 | Plant response rating, Corn (corn (Zea mays); [22]): 70 | Plant response rating, Foxtail, Giant [11, 21]: 80 | Plant response rating, Foxtail, Giant [11, 22]: 80 | Plant response rating, Pigweed [12, 21]: 30 | Plant response rating, Pigweed [12, 22]: 60 | Plant response rating, Ragweed [13, 21]: 20 | Plant response rating, Ragweed [13, 22]: 40 | Plant response rating, Ryegrass, Italian [14, 21]: 30 | Plant response rating, Ryegrass, Italian [14, 22]: 40 | Plant response rating, Wheat [15, 21]: 30 | Plant response rating, Wheat [15, 22]: 50 | Plant response rating, Barnyardgrass ([16]; 500 g ai/ha): 75 | Plant response rating, Ducksalad ([17]; 500 g ai/ha): 90 | Plant response rating, Rice (rice (Oryra sativa); 500 g ai/ha): 35 | Plant response rating, Sedge, Umbrella ([18]; 500 g ai/ha): 0

O=C1NCC(c2c(F)cccc2F)C1C(=O)Nc1ccccc1F (racemic) [Compound 515]
Plant response rating, Kochia (Kochia (Kochia scoparia) [1]; [23]): 0 | Kochia plant response rating (0 to 100 scale, 0 is no effect, 100 is complete control) (Kochia (Kochia scoparia) [1]; [24]): 0 | Plant response rating, Barnyardgrass [2, 23]: 0 | Barnyardgrass plant response rating (0 to 100 scale, 0 is no effect, 100 is complete control) [2, 24]: 0 | Plant response rating, Foxtail, Giant [3, 23]: 0 | Foxtail, Giant plant response rating (0 to 100 scale, 0 is no effect, 100 is complete control) [3, 24]: 70 | Plant response rating, Pigweed [4, 23]: 0 | Pigweed plant response rating (0 to 100 scale, 0 is no effect, 100 is complete control) [4, 24]: 0 | Plant response rating, Ragweed [5, 23]: 0 | Ragweed plant response rating (0 to 100 scale, 0 is no effect, 100 is complete control) [5, 24]: 0 | Plant response rating, Ryegrass, Italian [6, 23]: 0 | Ryegrass, Italian plant response rating (0 to 100 scale, 0 is no effect, 100 is complete control) [6, 24]: 0 | Galium plant response rating [7, 25]: 0 | Plant response rating, Galium [7, 26]: 0 | Kochia plant response rating (Kochia (Kochia scoparia) [8]; [25]): 0 | Plant response rating, Kochia (Kochia (Kochia scoparia) [8]; [26]): 0 | Barnyardgrass plant response rating [9, 25]: 0 | Plant response rating, Barnyardgrass [9, 26]: 20 | Blackgrass plant response rating [10, 25]: 0 | Plant response rating, Blackgrass [10, 26]: 0 | Corn plant response rating (corn (Zea mays); [25]): 0 | Plant response rating, Corn (corn (Zea mays); [26]): 0 | Foxtail, Giant plant response rating [11, 25]: 0 | Plant response rating, Foxtail, Giant [11, 26]: 0 | Pigweed plant response rating [12, 25]: 0 | Plant response rating, Pigweed [12, 26]: 0 | Ragweed plant response rating [13, 25]: 0 | Plant response rating, Ragweed [13, 26]: 0 | Ryegrass, Italian plant response rating [14, 25]: 0 | Plant response rating, Ryegrass, Italian [14, 26]: 0 | Wheat plant response rating [15, 25]: 0 | Plant response rating, Wheat [15, 26]: 0 | Plant response rating, Barnyardgrass ([16]; 250 g ai/ha): 0 | Plant response rating, Ducksalad ([17]; 250 g ai/ha): 0 | Plant response rating, Rice (rice (Oryra sativa); 250 g ai/ha): 0 | Plant response rating, Sedge, Umbrella ([18]; 250 g ai/ha): 0

Cc1cc(C2CNC(=O)C2C(=O)Nc2ccccc2F)cs1 (stereo not drawn) [Compound 630]
Plant response rating, Kochia (Kochia (Kochia scoparia) [1]; [23]): 0 | Plant response rating, Kochia (Kochia (Kochia scoparia) [1]; [20]): 50 | Plant response rating, Barnyardgrass [2, 23]: 90 | Plant response rating, Barnyardgrass [2, 20]: 90 | Plant response rating, Foxtail, Giant [3, 23]: 80 | Plant response rating, Foxtail, Giant [3, 20]: 90 | Plant response rating, Pigweed [4, 23]: 0 | Plant response rating, Pigweed [4, 20]: 0 | Plant response rating, Ragweed [5, 23]: 0 | Plant response rating, Ragweed [5, 20]: 30 | Plant response rating, Ryegrass, Italian [6, 23]: 0 | Plant response rating, Ryegrass, Italian [6, 20]: 20 | Plant response rating, Galium [7, 27]: 0 | Plant response rating, Galium [7, 22]: 40 | Plant response rating, Kochia (Kochia (Kochia scoparia) [8]; [27]): 0 | Plant response rating, Kochia (Kochia (Kochia scoparia) [8]; [22]): 0 | Plant response rating, Barnyardgrass [9, 27]: 80 | Plant response rating, Barnyardgrass [9, 26]: 90 | Plant response rating, Blackgrass [10, 27]: 0 | Plant response rating, Blackgrass [10, 26]: 20 | Plant response rating, Corn (corn (Zea mays); [27]): 0 | Plant response rating, Corn (corn (Zea mays); [26]): 20 | Plant response rating, Foxtail, Giant [11, 27]: 30 | Plant response rating, Foxtail, Giant [11, 22]: 30 | Plant response rating, Pigweed [12, 27]: 0 | Plant response rating, Pigweed [12, 22]: 0 | Plant response rating, Ragweed [13, 27]: 0 | Plant response rating, Ragweed [13, 22]: 0 | Plant response rating, Ryegrass, Italian [14, 27]: 0 | Plant response rating, Ryegrass, Italian [14, 22]: 0 | Plant response rating, Wheat [15, 27]: 0 | Plant response rating, Wheat [15, 22]: 20 | Plant response rating, Barnyardgrass ([16]; 250 g ai/ha): 20 | Plant response rating, Ducksalad ([17]; 250 g ai/ha): 95 | Plant response rating, Rice (rice (Oryra sativa); 250 g ai/ha): 0 | Plant response rating, Sedge, Umbrella ([18]; 250 g ai/ha): 0
